Data: the NIST ThermoML archive (doi:10.1016/j.jct.2010.11.001)

Conditions: Liquid, Closed cell (Static) method

CCC [propane]
Conditions | vapor or sublimation pressure [kPa]
233.22 K | 111.3
235.21 K | 121.3
237.18 K | 131.7
239.2 K | 143.2
241.22 K | 155.4
243.21 K | 168.2
245.26 K | 182.1
247.13 K | 195.6
249.14 K | 211.1
251.14 K | 227.4
253.14 K | 244.5
255.14 K | 262.5
257.13 K | 281.5
259.15 K | 301.8
261.12 K | 322.7
263.15 K | 345.3
265.14 K | 368.6
267.14 K | 393.2
269.14 K | 419
271.14 K | 446.1
273.14 K | 474.3
275.14 K | 503.9
277.14 K | 535
279.15 K | 567.4
281.15 K | 601.4
283.15 K | 636.7
285.15 K | 673.5
287.14 K | 711.8
289.15 K | 752
291.16 K | 793.7
293.15 K | 836.8

FCC(F)(F)F [1,1,1,2-tetrafluoroethane]
Conditions | vapor or sublimation pressure [kPa]
243.14 K | 84.1
245.14 K | 92.4
247.14 K | 101.4
249.15 K | 111.1
251.16 K | 121.4
253.15 K | 132.5
255.14 K | 144.3
257.16 K | 157.1
259.17 K | 170.6
261.16 K | 185
263.14 K | 200.2
265.13 K | 216.4
267.13 K | 233.7
269.14 K | 252.1
271.14 K | 271.6
273.13 K | 292.1
275.13 K | 313.9
277.16 K | 337.2
279.16 K | 361.5
281.16 K | 387.3
283.17 K | 414.3
285.14 K | 442.1
287.15 K | 472.3
289.14 K | 503.4
291.14 K | 536.3
293.14 K | 570.9
